Activity calls are given as the source filed them. Cut-off read from the data, not from the text of the source: active = GI50 up to about 1.1 µM and inactive = higher. Bounds are passed on as bounds.

Holding throughout (assay): cells
What all share (type): functional

In one assay the test system is P388. The note with it: Mus musculus.
The subject of another assay is P388/ADR. The note with it: Mus musculus.
The next assay concerns SN12K1. Particulars: Homo sapiens.

Take `CN(C)CCNC(=O)c1cccc2c(=O)c3ccccc3oc12`: the figures for the GI50 in the assay on P388, with P388/ADR and in the assay on SN12K1 were 15 µM (inactive), 28 µM (inactive) and 19.7 µM (inactive), respectively.

As for `O=C(O)/C=C/C(=O)N1C/C(=C\c2ccccc2)C(=O)/C(=C/c2ccccc2)C1`, the GI50 (usually the concentration that inhibits growth by half) in the assay with P388 was 11.9 µM (inactive); with P388/ADR, 13.8 µM (inactive); with SN12K1, 1.82 µM (inactive).

Take `COc1cc(C2c3cc4c(cc3[C@@H](Nc3ccccc3)C3COC(=O)[C@H]23)OCO4)cc(OC)c1O` (stereo not given in full): the GI50 was < 0.01 µM (active) in the assay with P388, 0.0344 µM (active) with P388/ADR and < 0.0164 µM (active) in the assay with SN12K1.

As for `COC(=O)[C@@]12OC[C@]34[C@H]([C@@H](O)[C@@H]1O)[C@@]1(C)CC(=O)C(O)=C(C)[C@@H]1C[C@H]3OC(=O)[C@H](OC(=O)/C=C(\C)C(C)C)[C@@H]24` [BRUCEANTIN], the GI50 is 0.021 µM (active) with P388, 0.0244 µM (active) with P388/ADR and 0.02 µM (active) in the assay on SN12K1.

`Cc1cc(O)c2c(=O)c3c(O)cc(O)c4c5c(O)cc(O)c6c(=O)c7c(O)cc(C)c8c1c2c(c34)c(c78)c65` [HYPERICIN]: the results for the GI50 in the assay with P388, with P388/ADR and in the assay with SN12K1 were 11.9 µM (inactive), 49.2 µM (inactive) and 92.7 µM (inactive), respectively.

(Values after ChEMBL document CHEMBL1201862, “PubChem BioAssay data set” (2004).)
